The term half-life denotes the time needed for the level to fall by half in the phase considered.

For data set [1], the target named is T1, hTRPM8 (Homo sapiens, UniProt Q7Z2W7).
T1 construct: expressed in transfected cells; host or cells: HEK293, transient transfection, pMO vector
The experiment in a line: whole-cell patch clamp selectivity, HEK 293 cells overexpressing hTRPM8. In kind it is cell-based. Conditions: HEK293, with agonist, solutions without Ca2+, read-out: % of the current of hTRPM8 inhibited. Here is the method: Human embryonic kidney 293 (HEK293; catalog number CRL-1573) cells were cultured in Dulbecco's modified Eagle's medium (Invitrogen) supplemented with 10% fetal bovine serum and 1% penicillin-streptomycin at 37° C. and 5% CO2. Constructs cloned in pMO (a pcDNA3-modified vector) were co-transfected with GFP-pMO, using Lipofectamine 2000 (Invitrogen) according to the manufacturer's instructions. Macroscopic currents in the whole-cell patch clamp configuration were recorded 18-24 h post-transfection. The extracellular solution contained 140 mM NaCl, 6 mM KCl, 2 mM MgCl2, 10 mM HEPES, and 10 mM glucose (pH 7.4). Pipettes were made of borosilicate glass (outer diameter, 1.5 mm; inner diameter, 1.10 mm; Sutter Instruments) and fire-polished with a resistance between 2.8 and 4.0 megaohms when filled with an intracellular solution that contained 140 mM CsCl, 5 mM EGTA, and 10 mM HEPES, pH 7.2. Currents were recorded with a Multiclamp 700B amplifier (Molecular Devices) using a 1-s ramp from −100 to 100 mV. […] Data were acquired with a sampling rate of 20 kHz, low-pass filtered (10 kHz), and analyzed offline using Clampfit v10.4.2.0 (Molecular Devices). […]

A short description of data set [2]: metabolic stability in human liver microsomes. The settings on record: human, microsomes. In kind it is in vitro ADME. The procedure: The metabolic stability of compound 22 was tested prior to the next phase of in vivo study. […] The maximum tolerated dose (MTD) study was subsequently performed to investigate its in vivo toxicity (FIGS. 4A and 4B). The second major limitation of Pyr3 is its toxicity due to its alkylating tail moiety. While replacing only the fast-metabolizing head ester group in Pyr3 with a stable amide (compound 79) improved metabolic stability, a single IP injection of compound 79 at 200 mg/kg killed all mice within 24 h.
On the technique in general: Liver microsomes are a subcellular fraction often used to study metabolism.

Data set [3] has as its target T2, TRPC3 (Homo sapiens, UniProt Q13507).
T2 sequence (Q13507 1-921): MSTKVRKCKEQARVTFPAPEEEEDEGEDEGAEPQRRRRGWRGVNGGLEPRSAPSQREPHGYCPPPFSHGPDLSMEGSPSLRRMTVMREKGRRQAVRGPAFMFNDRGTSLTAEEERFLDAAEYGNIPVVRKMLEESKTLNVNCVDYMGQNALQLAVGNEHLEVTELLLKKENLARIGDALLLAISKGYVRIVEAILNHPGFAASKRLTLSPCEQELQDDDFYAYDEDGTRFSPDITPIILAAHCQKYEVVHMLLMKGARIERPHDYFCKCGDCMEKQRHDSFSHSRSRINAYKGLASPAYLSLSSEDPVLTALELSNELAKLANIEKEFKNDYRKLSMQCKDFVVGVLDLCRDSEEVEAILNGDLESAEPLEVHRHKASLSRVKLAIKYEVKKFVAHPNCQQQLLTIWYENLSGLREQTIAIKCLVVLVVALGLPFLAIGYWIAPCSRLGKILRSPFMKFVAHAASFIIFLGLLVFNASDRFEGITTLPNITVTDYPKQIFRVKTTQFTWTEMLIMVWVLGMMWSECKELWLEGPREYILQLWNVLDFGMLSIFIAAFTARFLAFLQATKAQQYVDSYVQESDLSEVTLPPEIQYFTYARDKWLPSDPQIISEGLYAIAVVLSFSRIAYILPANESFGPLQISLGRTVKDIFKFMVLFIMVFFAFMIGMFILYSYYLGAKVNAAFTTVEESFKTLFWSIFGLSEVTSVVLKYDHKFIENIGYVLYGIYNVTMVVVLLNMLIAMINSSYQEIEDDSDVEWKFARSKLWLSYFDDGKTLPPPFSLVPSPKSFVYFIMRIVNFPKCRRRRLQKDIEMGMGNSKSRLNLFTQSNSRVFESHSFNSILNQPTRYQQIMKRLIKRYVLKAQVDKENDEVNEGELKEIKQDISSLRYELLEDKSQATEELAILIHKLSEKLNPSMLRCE
The experiment in a line: LC-MS detection of compound bound to affinity-purified TRPC3 protein after size-exclusion chromatography. More on the design: made in house. The settings on record: 1 h incubation, free compound removed. In kind it is binding. Here is the method: LC-MS technique was employed to find some evidence of the on-target engagement of compound 22 with TRPC3. Biochemical quantities of affinity-purified TRPC3 protein was successfully generated before and was confirmed by SDS-PAGE.21 After incubation of compound 22 with TRPC3 protein for 1 h, repeated size-exclusion chromatography was used to completely remove free compound 22 from the protein-bound fraction. Methanol was then added to this complex to denature the protein and extract the bound compound.
A general note: In gel filtration, larger molecules generally elute earlier.

Each structure is given as a SMILES string.

T1 sequence (Q7Z2W7 whole entry): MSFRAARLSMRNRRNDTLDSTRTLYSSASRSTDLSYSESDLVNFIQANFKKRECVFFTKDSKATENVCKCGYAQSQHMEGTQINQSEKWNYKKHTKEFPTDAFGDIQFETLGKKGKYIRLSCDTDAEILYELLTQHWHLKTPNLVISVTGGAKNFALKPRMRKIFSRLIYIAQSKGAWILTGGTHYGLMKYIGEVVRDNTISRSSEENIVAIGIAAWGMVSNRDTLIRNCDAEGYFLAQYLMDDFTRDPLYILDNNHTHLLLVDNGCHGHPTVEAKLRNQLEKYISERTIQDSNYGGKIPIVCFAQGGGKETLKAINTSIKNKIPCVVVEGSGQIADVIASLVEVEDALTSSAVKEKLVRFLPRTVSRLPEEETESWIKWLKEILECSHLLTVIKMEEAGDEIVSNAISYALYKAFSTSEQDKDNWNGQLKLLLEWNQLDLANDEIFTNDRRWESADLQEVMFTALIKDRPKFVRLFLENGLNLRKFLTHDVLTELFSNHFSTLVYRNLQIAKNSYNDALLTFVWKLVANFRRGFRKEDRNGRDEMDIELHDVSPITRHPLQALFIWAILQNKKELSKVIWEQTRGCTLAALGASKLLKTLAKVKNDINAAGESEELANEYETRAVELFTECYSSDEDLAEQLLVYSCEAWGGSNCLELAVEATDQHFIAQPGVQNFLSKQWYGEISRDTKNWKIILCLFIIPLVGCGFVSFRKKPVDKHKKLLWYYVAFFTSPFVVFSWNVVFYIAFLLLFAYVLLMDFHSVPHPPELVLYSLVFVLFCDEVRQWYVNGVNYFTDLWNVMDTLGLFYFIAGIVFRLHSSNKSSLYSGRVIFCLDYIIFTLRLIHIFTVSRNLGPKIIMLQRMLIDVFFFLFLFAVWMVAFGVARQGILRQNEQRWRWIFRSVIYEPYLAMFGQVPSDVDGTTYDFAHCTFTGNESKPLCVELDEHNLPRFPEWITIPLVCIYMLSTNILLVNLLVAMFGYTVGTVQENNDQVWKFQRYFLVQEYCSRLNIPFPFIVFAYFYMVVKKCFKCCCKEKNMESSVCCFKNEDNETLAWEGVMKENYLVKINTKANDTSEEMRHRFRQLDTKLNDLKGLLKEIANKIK

Take `CCNC(=O)c1cnn(-c2ccc(-n3ccc(Cl)c(Cl)c3=O)cc2)c1C(F)(F)F` [Compound 22]: the inhibition at 10 µM in data set [1] is under 5%. The molecule further came in with a half-life in data set [2] of over 4 h. Also, the “binding to TRPC3 protein (compound detected by LC-MS in extract of purified complex)” value in data set [3] is on record as “direct binding”.

The record behind these values is patent publication US20230265068A1, “TRANSIENT RECEPTOR POTENTIAL CANONICAL 3 INHIBITORS AND METHODS OF USE THEREOF” (University of Tennessee Research Foundation, priority 2020, published 2023).
